According to patent publication US20210207101A1, “Hybrid Thymus, Methods of Making, and Methods of Using to Induce Xenograft Tolerance, Restore Immunocompetence and Thymic Function” (THE TRUSTEES OF COLUMBIA UNIVERSITY IN THE CITY OF NEW YORK, priority 2018, published 2021):

Tests used:
pig thymocytes = test: Ex vivo depletion of thymocytes in pig thymic fragments; type: cell-based; settings: 2DG 100 mM for 12 hours
Text: There are different strategies to deplete the thymocytes in pig thymic fragments ex vivo, including anti-pig CD3 immunotoxin and complement-mediated toxicity (rabbit serum as source of complements plus anti-pig CD2). However, these two strategies were not effective. […] Results not shown.
[…] The ratio of remaining live double positive CD4 and CD8 cells (DP) or single positive (SP) CD4 (SP-CD4) or SP-CD8 cells on double negative (DN) cells, which contain the stromal cells, was used as the readout.

[1] = tested on: human thymopoiesis in grafted thymi; test: Human immune cell reconstitution after transplantation of 2DG-treated or untreated pig thymi into humanized NSG mice; type: in vivo, mouse; settings: 100 mM 2DG for 12 hours before grafting; mice bled every 2-3 weeks
Procedure: Using the 2DG treatment to deplete the pig thymocytes and the Hamilton syringe (Method C described above) for injection of human thymic stromal cells, a hybrid thymus was generated and tested in vivo. Specifically, two vials of fetal pig thymus were thawed. After pipetting up and down to release as many thymocytes as possible, half of the pieces were treated with 100 mM 2DG for 12 hours and the other half remained untreated. On the next day, six vials of human fetal thymus were thawed. After pipetting up and down to release as many thymocytes as possible, liberase was used to digest and release the stromal cells and make a single-cell suspension. After depletion of human CD45+ cells using magnetic-activated cell sorting (MACS), 10 million thymic stromal cells were dissolved in 150 μl of cold Matrigel at a concentration of 66,000 cells per μl. Around 10 μl of the cells (around 660,000 thymic stromal cells) were injected into each fetal pig thymus piece (either 2DG-treated and non-treated). The pieces were kept with fine forceps at room temperature for about 2 minutes until the Matrigel solidified. Then, each piece was transferred to a well of a 96-well plate containing medium with 10% human serum. […] Every 2-3 weeks following transplantation, the mice were bled, and the level of human immune cell reconstitution was evaluated.

O=CC[C@@H](O)[C@H](O)[C@H](O)CO [2DG, 2-deoxyglucose]
ratio of remaining live DP or SP-CD4 or SP-CD8 cells on double negative (DN) cells (pig thymocytes): lowest ratios
effect of treatment of pig thymic fragments on human thymopoiesis in grafted thymi [1]: did not affect human thymopoiesis
